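Assay format: 96-well plates, 48-hour exposure. GI50 = concentration required for 50% inhibition of growth.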 Calls of active or inactive are those of the source. Rule as the data show it: active = GI50 up to about 1.1 µM and inactive = higher.
Legend:
Assay in all cases: inhibition of tumour cell growth, NCI panel, 48 h
[1] = system: OVCAR-4
[2] = system: OVCAR-3
[3] = system: HOP-92
[4] = system: K562
[5] = system: SR
[6] = system: CAKI-1
[7] = system: SK-OV-3
[8] = system: MOLT-4
[9] = system: U-251
[10] = system: Malme-3M
[11] = system: LXFL 529
[12] = system: HCC 2998
[13] = system: UACC-62
[14] = system: SK-MEL-28
[15] = system: UO-31
[16] = system: CCRF-CEM
[17] = system: M14
[18] = system: OVCAR-8
[19] = system: KM-20L2
[20] = system: COLO 205
[21] = system: KM12
[22] = system: SW-620
[23] = system: SK-MEL-2
[24] = system: SK-MEL-5
[25] = system: IGROV-1
[26] = system: HCT-15
[27] = system: RXF 393
[28] = system: SNB-19
[29] = system: NCI-H23
[30] = system: SN12C
[31] = system: HT-29
[32] = system: TK-10
[33] = system: NCI-H522
[34] = system: DMS-273
[35] = system: SNB-78
[36] = system: DLD-1
[37] = system: OVCAR-5
[38] = system: XF498
[39] = system: SF-295
[40] = system: HOP-62
[41] = system: ACHN
[42] = system: SF-539
[43] = system: LOX IMVI
[44] = system: 786-0
[45] = system: SNB-75
[46] = system: RPMI-8226
[47] = system: HCT-116
[48] = system: DMS-114
[49] = system: A549
[50] = system: UACC-257
[51] = system: A498
[52] = system: M19-MEL
[53] = system: NCI-H226
[54] = system: SF-268
[55] = system: EKVX
[56] = system: NCI-H460

In the case of `O=C(N/C(=C\c1ccc(Br)cc1)c1nc2ccccc2[nH]1)c1ccccc1`, the GI50 [1] was 13.3 µM (inactive), the GI50 [2] was 19.1 µM (inactive) and the GI50 [3] was 11.6 µM (inactive). For the same compound, the GI50 [4] was 15.8 µM (inactive), the GI50 [5] was 18.3 µM (inactive) and the GI50 [6] was 23.3 µM (inactive). For the same compound, the GI50 [7] was 34.6 µM (inactive), the GI50 [8] was 17.6 µM (inactive) and the GI50 [9] was 17.3 µM (inactive). For the same compound, the GI50 [10] was 22.9 µM (inactive), the GI50 [11] was 13.6 µM (inactive) and the GI50 [12] was 17.2 µM (inactive). For the same compound, the GI50 [13] was 18.8 µM (inactive), the GI50 [14] was 15.8 µM (inactive) and the GI50 [15] was 15.6 µM (inactive). The GI50 [16] was 19.9 µM (inactive), the GI50 [17] was 18.2 µM (inactive) and the GI50 [18] was 21 µM (inactive). The GI50 [19] was 15.1 µM (inactive), the GI50 [20] was 18.9 µM (inactive) and the GI50 [21] was 17.5 µM (inactive). For the same compound, the GI50 [22] was 16.1 µM (inactive), the GI50 [23] was 16.3 µM (inactive) and the GI50 [24] was 19.8 µM (inactive). For the same compound, the GI50 [25] was 24.7 µM (inactive), the GI50 [26] was 16.3 µM and the GI50 [27] was 16.4 µM (inactive). For the same compound, the GI50 [28] was 18.4 µM (inactive), the GI50 [29] was 17.1 µM (inactive) and the GI50 [30] was 18.4 µM (inactive). The GI50 [31] was 18.1 µM (inactive), the GI50 [32] was 30.1 µM (inactive) and the GI50 [33] was 14.5 µM (inactive). For the same compound, the GI50 [34] was 24.3 µM (inactive), the GI50 [35] was 21.9 µM (inactive) and the GI50 [36] was 17.5 µM (inactive). The GI50 [37] was 14.9 µM (inactive), the GI50 [38] was 15.9 µM (inactive) and the GI50 [39] was 28 µM (inactive).
For `CCCN(CCCCC(NC(C)=O)C(=O)NCc1ccccc1)C(=O)N(C)N=O` (centres undefined), the GI50 [40] was > 100 µM (inactive), the GI50 [1] was > 100 µM (inactive) and the GI50 [2] was > 100 µM (inactive). For the same compound, the GI50 [41] was > 100 µM (inactive), the GI50 [3] was > 100 µM (inactive) and the GI50 [4] was > 100 µM (inactive). The GI50 [42] was > 100 µM (inactive), the GI50 [43] was > 100 µM (inactive) and the GI50 [44] was > 100 µM (inactive). The GI50 [45] was 38.1 µM (inactive), the GI50 [6] was > 100 µM (inactive) and the GI50 [46] was > 100 µM (inactive). For the same compound, the GI50 [7] was > 100 µM (inactive), the GI50 [8] was 92 µM (inactive) and the GI50 [47] was > 100 µM (inactive). The GI50 [48] was > 100 µM (inactive), the GI50 [49] was > 100 µM (inactive) and the GI50 [9] was > 100 µM (inactive). The GI50 [10] was > 100 µM (inactive), the GI50 [11] was > 100 µM (inactive) and the GI50 [12] was > 100 µM (inactive). For the same compound, the GI50 [13] was > 100 µM (inactive), the GI50 [14] was > 100 µM (inactive) and the GI50 [50] was > 100 µM (inactive). The GI50 [15] was > 100 µM (inactive), the GI50 [16] was > 100 µM (inactive) and the GI50 [17] was > 100 µM (inactive). The GI50 [18] was > 100 µM (inactive), the GI50 [19] was > 100 µM (inactive) and the GI50 [20] was > 100 µM (inactive). For the same compound, the GI50 [21] was > 100 µM (inactive), the GI50 [22] was > 100 µM (inactive) and the GI50 [23] was > 100 µM (inactive). The GI50 [24] was > 100 µM (inactive), the GI50 [25] was > 100 µM (inactive) and the GI50 [26] was > 100 µM. For the same compound, the GI50 [27] was > 100 µM (inactive), the GI50 [28] was > 100 µM (inactive) and the GI50 [29] was > 100 µM (inactive). The GI50 [51] was > 100 µM (inactive), the GI50 [30] was > 100 µM (inactive) and the GI50 [31] was > 100 µM (inactive). The GI50 [52] was > 100 µM (inactive), the GI50 [32] was > 100 µM (inactive) and the GI50 [33] was > 100 µM (inactive). The GI50 [53] was > 100 µM (inactive), the GI50 [54] was > 100 µM (inactive) and the GI50 [34] was > 100 µM (inactive). The GI50 [55] was > 100 µM (inactive), the GI50 [35] was > 100 µM (inactive) and the GI50 [36] was > 100 µM (inactive). For the same compound, the GI50 [37] was > 100 µM (inactive), the GI50 [38] was > 100 µM (inactive) and the GI50 [39] was > 100 µM (inactive). The GI50 [56] was > 100 µM (inactive).
